This note sets out measurements from patent publication US6455528B1, “Piperazine compounds and medicinal use thereof” (Mitsubishi Pharma Corporation, priority 1997, dated 2002).

Counter-ions that a name gives are not always drawn.

A word on the melting point: it is the temperature of the solid-liquid transition.

Regarding `CC(=O)NCc1ccc(C(C)N2CCN(c3ccccc3)CC2)cc1` (centres unmarked) (as salt: hydrochloride), the melting point is 233 to 235 °C (dec.). Compound `CC(=O)NCc1ccc(CN2CCN(c3ccc(F)cc3Br)CC2)cc1` (as salt: hydrochloride) returned a melting point of 231 to 235 °C. `CC(=O)NCc1ccc(CN2CCN(c3ccc(F)cc3C)CC2)cc1` (as salt: hydrochloride) registered a melting point of 115 to 117 °C.

As for `CC(=O)NCc1ccc(C(C)(C)N2CCN(c3ccc(F)cc3)CC2)cc1` (as salt: hydrochloride) (hydrate or solvate), the melting point was 179 to 181 °C. As for `CC(=O)NC(C)c1ccc(CN2CCN(c3ccccc3)CC2)cc1` (centres unmarked) (as salt: hydrochloride) (hydrate or solvate) [Example 58, N-(1-(4-((4-Phenylpiperazin-1-yl)methyl)phenyl)ethyl)acetamide Dihydrochloride 1/4 Hydrate], the figure is 196 to 200 °C. The compound `CC(=O)NCc1ccc(CN2CCN(c3ncccn3)CC2)cc1` (as salt: hydrochloride) (hydrate or solvate) [Example 73, N-(4-((4-(Pyrimidin-2-yl)piperazin-1-yl)methyl)phenylmethyl)acetamide Dihydrochloride Monohydrate] registered a melting point of 194 to 195 °C. `CC(=O)NCc1ccc(CN2CCN(c3nccs3)CC2)cc1` (as salt: hydrochloride) (hydrate or solvate) [Example 81, N-(4-((4-(Thiazol-2-yl)piperazin-1-yl)methyl)phenylmethyl)acetamide Hydrochloride 1/2 Hydrate] returned a melting point of 120 to 121 °C. Turning to `COc1ccccc1N1CCN(C(C)c2ccc(CNC(C)=O)cc2)CC1` (centres unmarked) (as salt: hydrochloride) [Example 19, N-(4-(1-(4-(2-Methoxyphenyl)piperazin-1-yl)ethyl)phenylmethyl)acetamide Dihydrochloride], the melting point is 220 to 223 °C (dec.). With `CC(=O)NCc1ccc(CN2CCN(c3ccc(O)cc3)CC2)cc1` (as salt: hydrochloride) [Example 36, N-(4-((4-(4-Hydroxyphenyl)piperazin-1-yl)methyl)phenylmethyl)acetamide Dihydrochloride] the figure was 218 to 220 °C; with `NCc1ccc(CN2CCN(c3ccccc3)CC2)cc1` [Example 2, 4-((4-(Aminomethyl)phenyl)methyl)-1-phenylpiperazine], 68 to 70 °C.

The compound `O=CNCc1ccc(CN2CCN(c3ccccc3)CC2)cc1` [Example 3, N-(4-((4-Phenylpiperazin-1-yl)methyl)phenylmethyl)formamide] gave a melting point of 108 to 109 °C. As for `CCC(=O)NCc1ccc(CN2CCN(c3ccccc3)CC2)cc1` [Example 4, N-(4-((4-Phenylpiperazin-1-yl)methyl)phenylmethyl)propionamide], the melting point lay within 140 to 141 °C. Take `CC(=O)NCc1ccc(CN2CCN(c3ccc(F)cc3)CC2)cc1` [Example 5, N-(4-((4-(4-fluorophenyl)piperazin-1-yl)methyl)phenylmethyl)acetamide]: the melting point was in the range of 164 to 166 °C. With `CC(=O)NCc1ccc(CN2CCN(c3cccc(C)c3)CC2)cc1` [Example 9, N-(4-((4-(3-Methylphenyl)piperazin-1-yl)methyl)phenylmethyl)acetamide] the figure was 80 to 81 °C. As to `CC(=O)NCc1ccc(CN2CCN(c3ccc(Cl)cc3)CC2)cc1` [Example 11, N-(4-((4-(4-Chlorophenyl)piperazin-1-yl)methyl)phenylmethyl)acetamide], the melting point was 180.5 to 182 °C.

As for `COc1ccc(N2CCN(Cc3ccc(CNC(C)=O)cc3)CC2)cc1` [Example 13, N-(4-((4-(4-Methoxyphenyl)piperazin-1-yl)methyl)phenylmethyl)acetamide], the melting point was in the range of 137 to 138 °C. Compound `CC(=O)NCCc1ccc(CN2CCN(c3ccccc3)CC2)cc1` [Example 14, N-(2-(4-((4-Phenylpiperazin-1-yl)methyl)phenyl)ethyl)acetamide] returned a melting point of 117 to 118 °C. In turn, `CC(=O)NCc1c(C)cc(CN2CCN(c3ccc(F)cc3)CC2)cc1C` [Example 18, N-(4-(4-(4-Fluorophenyl)piperazin-1-ylmethyl)-2,6-dimethylphenylmethyl)acetamide] had a melting point of 163 to 164 °C. `CC(=O)NCc1ccc(CN2CCN(c3ccccc3)CC2)cc1[N+](=O)[O-]` [Example 21, N-(2-Nitro-4-((4-phenylpiperazin-1-yl)methyl)phenylmethyl)acetamide] came in with a melting point of 135 to 136 °C. `CC(=O)NCc1ccc(CN2CCN(c3ccccc3)CC2)cc1N` [Example 22, N-(2-Amino-4-((4-phenylpiperazin-1-yl)methyl)phenylmethyl)acetamide] gave a melting point of 148 to 149 °C. `CC(=O)NCc1ccc(CN2CCN(c3ccc(F)cc3)CC2)cc1[N+](=O)[O-]` [Example 23, N-(4-((4-(4-Fluorophenyl)piperazin-1-yl)methyl)-2-nitrophenylmethyl)acetamide] showed a melting point of 112 to 114 °C.

`CC(=O)NCc1ccc(CN2CCN(c3ccc(F)cc3)CC2)cc1N` [Example 24, N-(2-Amino-4-((4-(4-fluorophenyl)piperazin-1-yl)methyl)phenylmethyl)acetamide]: the melting point lay in the range of 163 to 164 °C.

For the compound `CC(=O)NCc1ccc(CN2CCN(c3ccc(F)cc3)CC2)cc1Cl` [Example 26, N-(2-Chloro-4-((4-(4-fluorophenyl)-piperazin-1-yl)methyl)phenylmethyl)acetamide], the melting point fell in the range of 141 to 142 °C. For `CC(=O)NCCc1ccc(CN2CCN(c3ccc(F)cc3)CC2)cc1` [Example 27, N-(2-(4-((4-(4-Fluorophenyl)piperazin-1-yl)methyl)phenyl)ethyl)acetamide], the melting point fell in the range of 121 to 123 °C. Turning to `CC(=O)NCc1ccc(CN2CCN(c3ccc([N+](=O)[O-])cc3)CC2)cc1` [Example 33, N-(4-((4-(4-Nitrophenyl)piperazin-1-yl)methyl)phenylmethyl)acetamide], the melting point fell in the range of 151.5 to 153.5 °C. Turning to `CC(=O)NCc1ccc(CN2CCN(c3ccc(NC(C)=O)cc3)CC2)cc1` [Example 35, N-(4-((4-(4-Acetamidophenyl)piperazin-1-yl)methyl)phenylmethyl)acetamide], the melting point was 225 to 226 °C.

Consider `CC(=O)NCc1ccc(CN2CCN(c3ccc(F)cc3[N+](=O)[O-])CC2)cc1` [Example 37, N-(4-((4-(4-Fluoro-2-nitrophenyl)-piperazin-1-yl)methyl)phenylmethyl)acetamide], for which the melting point lay in the range of 94.5 to 96 °C. On to `CC(=O)NCc1ccc(CN2CCN(c3ccc(F)cc3N)CC2)cc1` [Example 38, N-(4-((4-(2-Amino-4-fluorophenyl)piperazin-1-yl)methyl)phenylmethyl)acetamide], for which the melting point fell in the range of 139 to 140 °C. With `CC(=O)NCc1ccc(CN2CCN(c3ccc(F)cc3NC(C)=O)CC2)cc1` [Example 39, N-(4-((4-(2-Acetylamino-4-fluorophenyl)piperazin-1-yl)methyl)phenylmethyl)acetamide], the melting point was 148 to 149.5 °C. As to `CCOc1cc(F)ccc1N1CCN(Cc2ccc(CNC(C)=O)cc2)CC1` [Example 41, N-(4-((4-(2-Ethoxy-4-fluorophenyl)-piperazin-1-yl)methyl)phenylmethyl)acetamide], the melting point is 108 to 109 °C.

In turn, `CC(=O)NCc1ccc(CN2CCN(c3ccc(F)cc3Cl)CC2)cc1` [Example 44, N-(4-((4-(2-Chloro-4-fluorophenyl)piperazin-1-yl)methyl)phenylmethyl)acetamide] returned a melting point of 255 to 257 °C. `CC(=O)NC(C)c1ccc(CN2CCN(c3ccc(F)cc3F)CC2)cc1` (centres unmarked) [Example 49, N-(1-(4-((4-(2,4-Difluorophenyl)piperazin-1-yl)methyl)phenyl)ethyl)acetamide]: the melting point lay in the range of 109 to 111 °C. `CC(=O)NC(C)(C)c1ccc(CN2CCN(c3ccccc3)CC2)cc1` [Example 50, N-(1-Methyl-1-(4-((4-phenylpiperazin-1-yl)methyl)phenyl)ethyl)acetamide] had a melting point of 110 to 111 °C. As for `CCC(NC(C)=O)c1ccc(CN2CCN(c3ccccc3)CC2)cc1` (centres unmarked) [Example 53, N-(1-(4-((4-Phenylpiperazin-1-yl)methyl)phenyl)propyl)acetamide], the melting point is 109 to 110.5 °C. `CCC(NC(C)=O)c1ccc(CN2CCN(c3ccc(F)cc3)CC2)cc1` (centres unmarked) [Example 54, N-(1-(4-((4-(4-Fluorophenyl)piperazin-1-yl)methyl)phenyl)propyl)acetamide] had a melting point of 113 to 114 °C. Consider `CCC(NC(C)=O)c1ccc(CN2CCN(c3ccc(F)cc3F)CC2)cc1` (centres unmarked) [Example 55, N-(1-(4-((4-(2,4-Difluorophenyl)piperazin-1-yl)methyl)phenyl)propyl)acetamide], for which the melting point was 137 to 138 °C. With `CCC(CC)(NC(C)=O)c1ccc(CN2CCN(c3ccccc3)CC2)cc1` [Example 56, N-(1-Ethyl-1-(4-((4-phenylpiperazin-1-yl)methyl)phenyl)propyl)acetamide], the melting point is 139 to 140 °C. For the compound `CC(=O)NC1(c2ccc(CN3CCN(c4ccccc4)CC3)cc2)CC1` [Example 57, N-(1-(4-((4-Phenylpiperazin-1-yl)methyl)-phenyl)cyclopropyl)acetamide], the melting point lay within 129 to 139.5 °C. On to `CC(=O)NCc1ccc(C(C)N2CCN(c3ccc(F)cc3)CC2)cc1` (centres unmarked) [Example 59, N-(4-(1-(4-(4-Fluorophenyl)piperazin-1-yl)ethyl)phenylmethyl)acetamide], for which the melting point was 128 to 130 °C. The compound `CC(=O)NC(C)(C)c1ccc(C(C)N2CCN(c3ccc(F)cc3)CC2)cc1` (centres unmarked) [Example 60, N-(1-(4-(1-(4-(4-Fluorophenyl)piperazin-1-yl)ethyl)phenyl)-1-methylethyl)acetamide] registered a melting point of 156 to 157 °C.

In turn, `CC(=O)NC(C)(C)c1ccc(C(C)N2CCN(c3ccccc3)CC2)cc1` (centres unmarked) [Example 62, N-(1-(4-(1-(4-Phenylpiperazin-1-yl)ethyl)-phenyl)-1-methylethyl)acetamide] came in with a melting point of 169 to 171 °C.
